According to the SangsterLogP compilation:

Experiments:
[1] = from Sparatore, F.; Grieco, C.; Silipo, C.; Vittoria, A. (1979). Use of regression analysis to correlate auxin activity with chemical physical and structural properties of benzotriazole derivatives. III. …; details: pH 5.6
[2] = method code G-GLC, from DOI: 10.1021/je00036a027
[3] = method code SF-HPLC, from DOI: 10.1002/ps.2780310207
[4] = method code SF-AS, from DOI: 10.1248/cpb.39.458, PMID: 1829027; details: pH 7.0
[5] = not given; remark: listed apart in the source
[6] = not given; remark: listed apart in the source
[7] = not given; remark: listed apart in the source
[8] = not given; remark: listed apart in the source
[9] = not given; remark: listed apart in the source
[10] = not given; remark: listed apart in the source
[11] = method code SF-RC, from DOI: 10.1002/ps.2780410303
[12] = not given; remark: listed apart in the source
[13] = from Wadhwa, L.; Chandiran, S.; Sharma, P. (2004). Alkyl esters of 6-methoxy-2-naphthylacetic acid as potential prodrugs - Synthesis, physicochemical properties, chemical stability and enzymatic …; details: pH 7.4
[14] = method code SF-AS, from DOI: 10.1135/cccc19881862
[15] = not given; remark: listed apart in the source
[16] = method code SF, from DOI: 10.1016/j.bmc.2005.05.004, PMID: 15946850; details: pH 7.4
[17] = not given; remark: listed apart in the source
[18] = method code SF-AS, from DOI: 10.1023/a:1016392123137, PMID: 24272811; details: pH 9.0
[19] = method code SF, from DOI: 10.1021/jm061062o.s001, PMID: 17326614; details: pH 7.4
[20] = not given; remark: listed apart in the source
[21] = not given; remark: listed apart in the source
[22] = not given; remark: listed apart in the source
[23] = method code SF-GLC, from DOI: 10.1016/s0021-9673(01)83612-8; details: pH 13.0
[24] = method code SF-AS, from DOI: 10.1002/ps.2780370107; details: pH 0.0

In the case of `CS(=O)(=O)NCCN1CCc2cccc(Cl)c2CC1`, the logP was 2.51.
Compound `OCCCCCCn1nnc2ccccc21` has a logD [1] of 1.71.
`Clc1cc(Cl)c(-c2ccccc2)cc1Cl` showed a logP [2] of 5.51.
Compound `CC(C)(Cn1cncn1)c1ccc(F)cc1` has a logP [3] of 1.74.
In the case of `CCCCCCCC(=O)OCC1OC(n2cc(F)c(=O)[nH]c2=O)CC1OC(=O)CCCCCCC` (configuration not stated), the logD [4] was 6.05.
Compound `Cc1ccc(C(=O)NNC(=O)c2ccccc2)cc1` has a logP [5] of 1.88.
For `CCOC(=O)OC[C@@H]1O[C@H](n2ccc(N)nc2=O)CS1`, the logP [6] was -0.25.
With `O=C(NCCN1CCOCC1)OCCCCCC1CCSS1` (configuration not stated) the logP [7] was 2.9.
`CCC1(CC)C(=O)NC(=O)N(C(C)C)C1=O` gave a logP [8] of 2.36.
With `COCc1ccc(COC(=O)C2C(C=C(C)C)C2(C)C)cc1` (configuration not stated) the logP [9] was 4.5.
Work on `CC(C)(C)c1ccc(C(O)CCCN2CCC(C(O)c3ccccc3)CC2)cc1` (configuration not stated) yielded a logP [10] of 4.06.
Work on `CC(C)C1(C)N=C(c2ncc(S(C)(=O)=O)cc2C(=O)O)NC1=O` (configuration not stated) yielded a logD ([11]; pH 2.0) of -0.05.
For `O=[N+]([O-])c1ccc2cccccc1-2`, the logP [12] was 2.59.
`COc1ccc2cc(CC(=O)OC(C)C)ccc2c1` showed a logD [13] of 4.
`CCCOC(=O)Cc1ccc2cc(OC)ccc2c1` showed a logD [13] of 4.14.
In the case of `O=C(O)CCC(=O)c1ccc(-c2ccc(-c3ccccc3)cc2)cc1`, the logD ([14]; pH 3.5) was 3.2.
`Cc1ccc(CCN)cc1` showed a logP [15] of 1.83.
Compound `OCc1nonc1-c1ccc(OCCCc2c[nH]cn2)cc1` has a logD [16] of 1.96.
Work on `S=c1ssc(Cc2ccccc2)c1-c1ccccc1` yielded a logP [17] of 4.29.
`O=C(NNC(=O)c1ccc([N+](=O)[O-])cc1)c1ccc([N+](=O)[O-])cc1` gave a logP [5] of 2.07.
For `CSc1cnc(C2=NC(C)(C(C)C)C(=O)N2)c(C(=O)O)c1` (configuration not stated), the logD ([11]; pH 2.8) was 0.75.
For `CCc1c(-c2ccccc2)ssc1=S`, the logP [17] was 4.31.
`Cc1cccc(-c2cc3ccccc3c(N)n2)n1` gave a logD [18] of 3.18.
With `CS(=O)(=O)CCN(CCI)c1cc(C(N)=O)c([N+](=O)[O-])cc1[N+](=O)[O-]` the logD [19] was 0.74.
Compound `CCC1(c2ccccc2)C(=O)NC(=O)N=C1OC(C)C` (configuration not stated) has a logP [8] of 2.22.
Work on `O=C(NN(C(=O)c1ccc([N+](=O)[O-])cc1)c1ccccc1)c1ccc([N+](=O)[O-])cc1` yielded a logP [5] of 4.18.
`O=S(=O)(Nc1ccccc1Cl)c1c(O)c(Cl)cc(Cl)c1Cl` gave a logP [20] of 3.97.
In the case of `O=S(=O)(Nc1ccc(O)cc1)c1cc(Cl)cc(Cl)c1Cl`, the logP [20] was 4.18.
`Nc1nc(-c2ccccn2)cc2ccccc12` showed a logD [18] of 2.74.
In the case of `NC(=O)Cc1ccc2cccccc1-2`, the logP [12] was 2.48.
`O=C(CCCN1CCC(C(O)(c2ccccc2)c2ccccc2)CC1)c1ccccc1` gave a logP [10] of 4.42.
With `CCCc1cnc(C2=NC(C)(C(C)C)C(=O)N2)c(C(=O)O)c1` (configuration not stated) the logD ([11]; pH 2.8) was 1.27.
With `CCNCc1ccc(C)cc1` the logP [21] was 2.38.
`CCOC(=O)Cc1ccc2cc(OC)ccc2c1` gave a logD [13] of 3.04.
Work on `CCCCCCCNCc1ccc(C)cc1` yielded a logP [21] of 5.12.
Compound `Clc1c(Cl)c(Cl)c(-c2ccccc2)c(Cl)c1Cl` has a logP [2] of 6.3.
`CCCCCOC(=O)OC[C@@H]1O[C@H](n2ccc(N)nc2=O)CS1` gave a logP [6] of 1.2.
`OC1(c2cccc(F)c2)c2ccccc2C2=NCCN21` (configuration not stated) gave a logP [22] of 1.28.
`N#Cc1nonc1-c1ccc(OCCCc2c[nH]cn2)cc1` showed a logD [16] of 3.04.
`OC1(c2ccc(Br)cc2)c2ccccc2C2=NCCN21` (configuration not stated) gave a logP [22] of 1.9.
For `CCC1(CC)C(=O)N=C(OC(C)C)NC1=O`, the logP [8] was 1.44.
Work on `OCCCCn1nnc2ccccc21` yielded a logD [1] of 1.03.
`OC1(c2ccc(F)cc2)c2ccccc2C2=NCCN21` (configuration not stated) gave a logP [22] of 0.95.
Work on `OCCCNc1ccccc1` yielded a logP [15] of 0.57.
In the case of `OC1(c2ccc(I)cc2)c2ccccc2C2=NCCN21` (configuration not stated), the logP [22] was 2.2.
Compound `CC(=O)OCC1OC(n2cc(F)c(=O)[nH]c2=O)CC1OC(C)=O` (configuration not stated) has a logD [4] of -0.34.
With `Clc1cc(Cl)c(-c2ccccc2)c(Cl)c1` the logP [2] was 5.47.
With `O=C(O)CCCC(=O)c1ccc(-c2ccc(-c3ccccc3)cc2)cc1` the logD ([14]; pH 3.5) was 3.35.
For `CS(=O)(=O)c1cc([N+](=O)[O-])c(C(N)=O)cc1N(CCBr)CCBr`, the logD [19] was 1.18.
With `CC1(C)C2Cc3ssc(=S)c3C1C2` (configuration not stated) the logP [17] was 3.52.
For `COc1ccc2cc(CC(=O)OCC(C)C)ccc2c1`, the logD [13] was 4.71.
With `CCCCC(=O)OC[C@H]1O[C@@H](n2cc(F)c(=O)[nH]c2=O)C[C@@H]1OC(=O)CCCC` the logD [4] was 2.72.
With `CNCCCCc1ccccc1` the logD [23] was 2.76.
Work on `COc1ccc(COC(C(=O)O)c2ccccc2)cc1Cl` (configuration not stated) yielded a logD ([14]; pH 3.4) of 2.45.
With `O=S(=O)(Nc1cc(Cl)c(Cl)cc1Cl)c1c(O)c(Cl)cc(Cl)c1Cl` the logP [20] was 4.36.
Work on `CCOC(=O)c1ccc2cccccc1-2` yielded a logP [12] of 3.83.
With `Clc1ccc(C2(Cn3cncn3)CCC2)cc1` the logP [3] was 2.13.
In the case of `COCCN1CCc2cccc(Cl)c2CC1`, the logP was 3.
For `O=C(O)C(OCc1ccccc1)c1ccccc1` (configuration not stated), the logD ([14]; pH 3.4) was 2.
For `CC(C)C1(C)N=C(c2ncc(CO)cc2C(=O)O)NC1=O` (configuration not stated), the logD ([11]; pH 2.5) was -0.21.
In the case of `CS(=O)(=O)CCN(CCS(C)(=O)=O)c1cc(C(N)=O)c([N+](=O)[O-])cc1[N+](=O)[O-]`, the logD [19] was -0.7.
`Clc1cccc(Cl)c1-c1ccccc1` gave a logP [2] of 4.93.
`OCCCCCn1nc2ccccc2n1` showed a logD [1] of 1.93.
For `Cc1ccccc1CCN`, the logP [15] was 1.6.
In the case of `COc1ccc(C(=O)NNC(=O)c2ccccc2)cc1`, the logP [5] was 1.6.
In the case of `CC(N)CC1CCCCCCC1` (configuration not stated), the logD [23] was 3.7.
With `NC1CCc2ccccc2C1` (configuration not stated) the logD [23] was 2.08.
In the case of `CCCOC(=O)OC[C@@H]1O[C@H](n2ccc(N)nc2=O)CS1`, the logP [6] was 0.22.
In the case of `O=C(O)c1ccc2cccccc1-2`, the logD ([12]; pH 3.4) was 2.88.
`Cc1ccc(Cc2cnc(NCCCCc3ncc(Br)cc3C)[nH]c2=O)cn1` showed a logP [10] of 3.19.
`CS(=O)(=O)CCN(CCCl)c1cc(C(N)=O)c([N+](=O)[O-])cc1[N+](=O)[O-]` gave a logD [19] of 0.42.
In the case of `Clc1ccc(C2(Cn3cncn3)CC2)cc1`, the logP [3] was 2.21.
`O=S(=O)(Nc1cc(Cl)c(Cl)cc1Cl)c1cc(Cl)cc(Cl)c1O` showed a logP [20] of 4.32.
`CC1CN(CCNC(=O)OCCCCCC2CCSS2)CC(C)O1` (configuration not stated) showed a logP [7] of 4.2.
Compound `CN[C@H](C)[C@@H](OC)c1ccccc1` (relative stereo) has a logD [23] of 1.87.
Work on `OCCCCn1nc2ccccc2n1` yielded a logD [1] of 1.57.
`CCCN1CCc2cccc(Cl)c2CC1` gave a logP of 3.5.
In the case of `CCCCNCc1ccc(C)cc1`, the logP [21] was 3.49.
Compound `[O-][n+]1onc(-c2ccc(OCCCc3c[nH]cn3)cc2)c1CO` has a logD [16] of 1.83.
For `Cc1cccc2cc(-c3ccccn3)nc(N)c12`, the logD [18] was 3.05.
`Clc1cccc2c1CCNCC2` showed a logP of 2.4.
For `CC(C)OC(=O)OC[C@@H]1O[C@H](n2ccc(N)nc2=O)CS1`, the logP [6] was 0.1.
In the case of `C#CCc1ccc(COC(=O)C2C(C=C(C)C)C2(C)C)o1` (configuration not stated), the logP [9] was 6.67.
In the case of `CCC1(c2ccccc2)C(=O)N=C(OC(C)C)NC1=O` (configuration not stated), the logP [8] was 1.79.
Compound `N#Cc1c(-c2ccc(OCCCc3c[nH]cn3)cc2)no[n+]1[O-]` has a logD [16] of 2.99.
In the case of `CC1(C)C(/C=C(\Cl)C(F)(F)F)C1C(=O)OC(C#N)c1cccc(Oc2ccccc2)c1` (configuration not stated), the logP [9] was 6.02.
With `c1ccc(-c2cc3ccccc3cn2)nc1` the logD [18] was 3.05.
In the case of `CCCCCCNCc1ccc(C)cc1`, the logP [21] was 4.96.
In the case of `S=c1ssc2c1CCCCCCCCCC2`, the logP [17] was 5.8.
`CCCCCC(=O)OCC1OC(n2cc(F)c(=O)[nH]c2=O)CC1OC(=O)CCCCC` (configuration not stated) showed a logD [4] of 4.25.
In the case of `NCCCCc1ccccc1`, the logP [15] was 2.25.
Compound `Fc1ccc(C2(Cn3cncn3)CCC2)cc1` has a logP [3] of 1.93.
`O=C(CCCCC1CCSS1)NCCN1CCOCC1` (configuration not stated) gave a logP [7] of 1.8.
In the case of `CC(=O)OC(c1ccc(Cl)c(Cl)c1)C(Cl)(Cl)Cl` (configuration not stated), the logP [9] was 4.92.
Work on `CCOP(=O)(O)Cc1ccc(S(C)(=O)=O)cc1` yielded a logD [24] of -0.4.
`CCCCCOC(=O)NCCN1CCOCC1` gave a logP [7] of 2.8.
`Cc1ncc2c(c1O)COC2c1ccc(Cl)cc1` (configuration not stated) showed a logP [10] of 2.34.
